Assay results reported in article PMC8096218, “Global RNA profiles show target selectivity and physiological effects of peptide-delivered antisense antibiotics” (Nucleic Acids Research, 2021).
Where two headings read alike, the source gives them in different places.

Experiments:
[1] = system: wild-type Salmonella enterica serovar Typhimurium strain LT2; assay: MIC determination by broth microdilution; assay type: cell-based; details: Table 3; ∼10^5 cfu/ml; three biological replicates
Procedure: (§1) MIC values were determined by broth microdilution according to standard protocols with a few modifications ([26]). An overnight bacterial cell culture, supplemented with the appropriate antibiotic when needed, was diluted 1:100 in fresh MHB and grown to OD600 0.5. The obtained culture was diluted to ∼10^5 cfu/ml or 10^6 cfu/ml, as indicated, in non-cation-adjusted MHB. Subsequently, 190 μl bacterial solution was dispensed into a 96-well plate (Thermo Fisher Scientific) along with 10 μl of a 20x PPNA, PNA or peptide working solution. Growth was monitored by measuring the OD at 600 nm every 20 min in a Synergy H1 plate reader (Biotek) with continuous double-orbital shaking (237 cpm) at 37°C for 24 h.
Fig. S5. Growth k inetics for MIC determ ination of 10^5 cfu/m l Salmonella wt (LT 2) and its isogenic
Pho PC m utant in the presen ce of var ying co ncentra tio n s of the in dicat ed co njugat e s. ( A) KFF-acpP,
KFF-acpP-scram bled (scr) or KFF peptide in s erial dilutions from 10 µM to 0.3 µM. ( B) RXR- acpP,
RXR- acpP-scram bled (scr) or RXR peptide in serial dilutions from 10 µM to 0.3 µ M. ( C) T at-acpP,
T at-acpP-scram bled (scr) or T at peptide in serial dilutions from 20 µM to 0.6 µM. Data represent
the average of three biological replicates, error bars indicate standard error of the m ean (SEM).
(1 picture or pasted object on this page, not shown here)

[2] = system: Salmonella gene expression; assay: RNA-seq transcriptomic response; assay type: cell-based, Salmonella enterica serovar Typhimurium; details: 15 min
Procedure: Bacterial overnight cultures were diluted 1:100 in fresh MHB and grown to OD600 0.5. The obtained cultures were diluted to ∼10^6 cfu/ml in non-cation-adjusted MHB. Afterward, the bacterial solution was transferred into low-binding 5 ml tubes (LABsolute) along with the 20× PNA, peptide or PPNA solution. The final concentrations were 5 μM for KFF- and RXR-PNAs, and 10 μM for Tat-PNAs. Equimolar concentrations were used for the respective peptide control conditions. As a negative control, cells were treated with the respective volume of sterile nuclease-free water, which was used as solvent for the test compounds.
A time kinetic was performed for subsequent northern blot analysis (5, 10, 15 min), in which the reaction was stopped at the indicated time points by using RNAprotect Bacteria (Qiagen). For RNA-seq analyses, adding RNAprotect Bacteria at 15 min post treatment stopped the reactions with the indicated PPNA constructs or the respective peptide. After vortexing for 5 s, the samples were incubated at room temperature for 10 min, followed by cell pelleting at 4°C and 21 100 ×g for 20 min. Pellets were directly used for RNA isolation or stored at –20°C (<2 days) until further processing. RNA was purified from bacterial pellets using isolation protocol #3, as described above (0.5 mg/ml lysozyme, miRNeasy).
DNase treatment, cDNA library preparation and sequencing was conducted at Vertis (Munich, Germany). The RNA samples were first fragmented using ultrasound (4 pulses of 30 s each at 4°C). Then, an oligonucleotide adapter was ligated to the 3′ ends of the RNA molecules. First-strand cDNA synthesis was performed using M-MLV reverse transcriptase and the 3′ adapter as primer. The first-strand cDNA was purified and the 5′ Illumina TruSeq sequencing adapter was ligated to the 3′ end of the antisense cDNA. The resulting cDNA was PCR-amplified to about 10–20 ng/μl using a high fidelity DNA polymerase. The cDNA was purified using the Agencourt AMPure XP kit (Beckman Coulter Genomics) and was analyzed by capillary electrophoresis. For Illumina NextSeq sequencing, the samples were pooled in approximately equimolar amounts. The cDNA pool was sequenced on an Illumina NextSeq 500 system using 75 bp read length.
Reads from the RNA-Seq experiments were trimmed, filtered and mapped against the S. enterica subsp. enterica serovar Typhimurium SL1344 reference genome and the three plasmids pSLT_SL1344, pCol1B9_SL1344 (other name is p2), and pRSF1010_SL1344 ([19]). BBDuk was applied to trim bases with a Phred quality score of <10, and adapters were removed simultaneously. Reads were then mapped against the reference genome using BBMap (v38.84) and then assigned genomic features, including both coding sequences and annotated sRNAs ([19],[29]) using the featureCounts method of the Subread (2.0.1) package.
All downstream analysis was performed using packages from the R/Bioconductor project. The raw read counts were imported and analyzed with edgeR (v3.30.0). Each set of PNA-peptide conjugate experiments (i.e. experiments with KFF, RXR and Tat peptide) was analyzed simultaneously. Genes with less than 14.6 counts per million (CPM) in at least three libraries were filtered. This cutoff value was calculated using 10/L, where L is the library size of the smallest sample (minimum library size) in millions.
Raw read counts were normalized by trimmed mean of M values (TMM) normalization. Differential expression analysis was conducted using edgeR ([31]). Estimation of quasi-likelihood (QL) dispersions was then run with the […] function. Then contrasts between all samples versus the water controls were created as input for the glmQLTest function.
Genes with an absolute fold change >2 and an adjusted P-value (Benjamini–Hochberg, ([32])) <0.001 were considered differentially expressed.

[3] = system: wild-type (wt) Salmonella enterica serovar Typhimurium strain SL1344; details: for MIC: non-cation-adjusted MHB, 37°C, 24 h; for MIC in μM, SL1344 wt: Table 3, three biological replicates
Procedure: as §1

[4] = edgeR, versus water, 5 μM RXR-constructs, 10 μM Tat-constructs, triplicates, listed as PNATAT
[5] = Table 1, ∼10^5 cfu/ml, lowest concentration with OD600 < 0.1
[6] = Table 2, ∼10^6 cfu/ml, performed three times
[7] = edgeR, versus water, 5 μM KFF-/RXR-constructs, 10 μM Tat-constructs, triplicates, listed as PNAKFF
[8] = edgeR, versus water, 5 μM RXR-constructs, 10 μM Tat-constructs, triplicates, listed as PNARXR

For GRKKKRRQRRRYK [Tat-acpP], the “MIC in μM, LT2 wt” value [1] was 2.5 to 5 µM, the “number of differentially expressed sRNAs, apart from AmgR upregulation” value ([2]; RNA-seq, 10 μM) was “five” and the “logFC SL1344_0066A” value [2, 4] was 4.741. For the same sequence, the “logFC SL1344_2742” value [2, 4] was 3.794, the “logFC sseG” value ([2]; edgeR, versus water, 10 μM, triplicates) was 3.37 and the “logFC recJ” value ([2]; edgeR, versus water, 10 μM, triplicates, listed as PNATAT) was 1.967. For the same sequence, the “MIC” value ([3]; Table 1, ∼10^5 cfu/ml) was 22 µg/mL, the “MIC” value [3, 5] was 5 µM and the “MIC” value [3, 6] was 10 µM. For the same sequence, the “MIC in μM, SL1344 wt” value ([3]; ∼10^5 cfu/ml) was 5 µM.
For KFFKFFKFFK [KFF-acpP], the “MIC in μM, LT2 wt” value [1] was 1.25 µM, the “number of differentially expressed genes” value ([2]; absolute fold change >2 and FDR-adjusted P-value <0.001 versus water, 5 μM KFF-/RXR-constructs, 10 μM Tat-constructs) was 5 and the “upregulation of AmgR transcript levels” value ([2]; RNA-seq, 5 μM) was about 1.9 fold. For the same sequence, the “upregulation of mig-14, virK and yfiA mRNAs” value ([2]; RNA-seq, 5 μM) was 2- to 4 fold, the “logFC yfiA” value ([2]; edgeR, versus water, 5 μM KFF-/RXR-constructs, 10 μM Tat-constructs, triplicates) was 1.09 and the “logFC mig-14” value [2, 7] was 1.3466. The “logFC virK” value [2, 7] was 1.758, the “MIC” value ([3]; Table 1, ∼10^5 cfu/ml) was 5 µg/mL and the “MIC” value [3, 5] was 1.25 µM. The “MIC” value [3, 6] was 5 µM and the “MIC in μM, SL1344 wt” value ([3]; ∼10^5 cfu/ml) was 1.25 µM.
RXRRXRRXRRXRXB [RXR-acpP] was tested, and the “MIC in μM, LT2 wt” value [1] was 1.25 µM, the “number of downregulated sRNAs, apart from the induction of AmgR” value ([2]; RNA-seq, 5 μM) was “four” and the “upregulation of mig-14” value ([2]; RNA-seq, 5 μM) was 1.89 fold. The “logFC SL1344_0066A” value [2, 8] was 4.762, the “logFC SL1344_2742” value [2, 8] was 3.54 and the “logFC mgtA” value [2, 8] was 1.7. For the same sequence, the logFC hfq ([2]; edgeR, versus water, 5 μM, triplicates) was -1.309, the “MIC” value ([3]; Table 1, ∼10^5 cfu/ml) was 11 µg/mL and the “MIC” value [3, 5] was 2.5 µM. The “MIC” value [3, 6] was 5 µM and the “MIC in μM, SL1344 wt” value ([3]; ∼10^5 cfu/ml) was 2.5 µM.
